We go through 14 compounds from patent publication US7411083B2, “Substituted acetic acid derivatives” (Wyeth, priority 2003, dated 2008).

T1 sequence (P05121 24-402): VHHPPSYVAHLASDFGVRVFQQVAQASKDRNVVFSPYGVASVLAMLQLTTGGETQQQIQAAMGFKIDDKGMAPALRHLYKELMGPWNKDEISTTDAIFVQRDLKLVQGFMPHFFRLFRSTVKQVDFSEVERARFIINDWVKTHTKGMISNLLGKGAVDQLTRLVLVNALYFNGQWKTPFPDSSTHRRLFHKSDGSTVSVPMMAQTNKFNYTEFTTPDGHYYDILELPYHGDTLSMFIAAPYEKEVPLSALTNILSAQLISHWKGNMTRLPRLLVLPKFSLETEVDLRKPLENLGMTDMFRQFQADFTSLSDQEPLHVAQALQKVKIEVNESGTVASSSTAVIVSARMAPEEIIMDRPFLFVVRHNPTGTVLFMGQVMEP

The test concerns the target T1, recombinant human plasminogen activator inhibitor-1 (PAI-1) (Homo sapiens, UniProt P05121).
T1 construct: purchased Molecular Innovations, Royal Oak, Mich
The test is described as follows: Screening for PAI-1 inhibition (residual tPA activity, Spectrozyme-tPA chromogenic substrate). Particulars: test compound at 100 Um; pH 6.6 buffer, 140 nM PAI-1, 70 nM tPA. The class given is biochemical. The procedure: Screening for PAI-1 inhibition. Test compounds are dissolved in DMSO at a final concentration of 10 Mm, then diluted 100× in physiologic buffer. The inhibitory assay is initiated by the addition of the test compound (1-100 μM final concentration, maximum DMSO concentration of 0.2%) in a Ph 6.6 buffer containing 140 Nm recombinant human plasminogen activator inhibitor-1 (PAI-1; Molecular Innovations, Royal Oak, Mich.). Following a 1 hour incubation at room temperature, 70 Nm of recombinant human tissue plasminogen activator (Tpa) is added, and the combination of the test compound, PAI-1 and Tpa is incubated for an additional 30 minutes. Following the second incubation, Spectrozyme-Tpa (American Diagnostica, Greenwich, Conn.), a chromogenic substrate for Tpa, is added and absorbance read at 405 nm at 0 and 60 minutes. Relative PAI-1 inhibition is equal to the residual Tpa activity in the presence of the test compounds and PAI-1. Control treatments include the complete inhibition of Tpa by PAI-1 at the molar ratio employed (2:1), and the absence of any effect of the test compound on Tpa alone.
Take `O=C(O)CO/N=C/c1cccc(-c2cccc(OCc3ccc4ccccc4c3)c2)c1` [Compound 69, [({(1E)-[3′-(2-naphthylmethoxy)-1,1′-biphenyl-3-yl]methylidene}amino)oxy]acetic acid]: the inhibition at 100 µM worked out at 53%.
The figure for `Cc1ccc(COc2cccc(-c3cccc(/C=N/OCC(=O)O)c3)c2)cc1` [Compound 70, {[((1E)-{3′-[(4-methylbenzyl)oxy]-1,1′-biphenyl-3-yl}methylidene)amino]oxy}acetic acid] is 83%; for `Cc1cccc(COc2cccc(-c3cccc(/C=N/OCC(=O)O)c3)c2)c1` [Compound 71, {[((1E)-{3′-[(3-methylbenzyl)oxy]-1,1′-biphenyl-3-yl}methylidene)amino]oxy}acetic acid] it is 85%; for `O=C(O)CO/N=C/c1cccc(-c2cccc(OCc3c(Cl)cccc3Cl)c2)c1` [Compound 72, {[((1E)-{3′-[(2,6-dichlorobenzyl)oxy]-1,1′-biphenyl-3-yl}methylidene)amino]oxy}acetic acid] it is 88%.
The figure for `O=C(O)CO/N=C/c1cccc(-c2ccc(OCc3ccc(C(F)(F)F)cc3)cc2)c1` [Compound 73, ({[(1E)-(4′-{[4-(trifluoromethyl)benzyl]oxy}-1,1′-biphenyl-3-yl)methylidene]amino}oxy)acetic acid] is 59%; for `CC(C)(C)c1ccc(COc2ccc(-c3cccc(/C=N/OCC(=O)O)c3)cc2)cc1` [Compound 74, {[((1E)-{4′-[(4-tert-butylbenzyl)oxy]-1,1′-biphenyl-3-yl}methylidene)amino]oxy}acetic acid] it is 34%.
On to `O=C(O)CO/N=C/c1cccc(-c2ccc(OCc3ccc(Br)cc3)cc2)c1` [Compound 75, {[((1E)-{4′-[(4-bromobenzyl)oxy]-1,1′-biphenyl-3-yl}methylidene)amino]oxy}acetic acid], for which the inhibition at 100 µM came to 75%.
`O=C(O)CO/N=C/c1cccc(-c2ccc(OCc3cc(C(F)(F)F)cc(C(F)(F)F)c3)cc2)c1` [Compound 76, ({[(1E)-(4′-{[3,5-bis(trifluoromethyl)benzyl]oxy}-1,1′-biphenyl-3-yl)methylidene]amino}oxy)acetic acid]: the inhibition at 100 µM was determined as 73%.
The figure for `O=C(O)CO/N=C/c1cccc(-c2ccc(OCc3cccc(Br)c3)cc2)c1` [Compound 77, {[((1E)-{4′-[(3-bromobenzyl)oxy]-1,1′-biphenyl-3-yl}methylidene)amino]oxy}acetic acid] is 85%.
The figure for `O=C(O)CO/N=C/c1cccc(-c2ccc(OCc3cccc(Cl)c3)cc2)c1` [Compound 78, {[((1E)-{4′-[(3-chlorobenzyl)oxy]-1,1′-biphenyl-3-yl}methylidene)amino]oxy}acetic acid] is 23%.
`O=C(O)CO/N=C/c1cccc(-c2ccc(OCc3ccccc3)cc2)c1` [Compound 79, [({(1E)-[4′-(benzyloxy)-1,1′-biphenyl-3-yl]methylidene}amino)oxy]acetic acid]: the inhibition at 100 µM came to 53%.
In the case of `O=C(O)CO/N=C/c1cccc(-c2ccc(OCc3cccc(C(F)(F)F)c3)cc2)c1` [Compound 80, ({[(1E)-(4′-{[3-(trifluoromethyl)benzyl]oxy}-1,1′-biphenyl-3-yl)methylidene]amino}oxy)acetic acid], the inhibition at 100 µM is 78%.
The figure for `O=C(O)CO/N=C/c1cccc(-c2ccc(OCc3ccc(Cl)cc3)cc2)c1` [Compound 81, {[((1E)-{4′-[(4-chlorobenzyl)oxy]-1,1′-biphenyl-3-yl}methylidene)amino]oxy}acetic acid] is 28%.
Regarding `O=C(O)CO/N=C/c1cccc(-c2ccc(OCc3ccccc3Cl)cc2)c1` [Compound 82, {[((1E)-{4′-[(2-chlorobenzyl)oxy]-1,1′-biphenyl-3-yl}methylidene)amino]oxy}acetic acid], the inhibition at 100 µM is 89%.
